In patent US20230113747A1, “IMMUNOGENIC PEPTIDES WITH AN OXIDOREDUCTASE MOTIF COMPRISING A MODIFIED CYSTEINE” (priority 2019, published 2023):
Ends that are not written are not given here.

Each substance was assayed on two peptides with a FITC label covalently attached to each other via a disulfide bridge (assay: Reductase activity of the peptides, fluorescent assay (Tomazzolli et al.)). Details: not given.
Assay type: biochemical

Which oxidoreductase activity does the source give for “N-Acetyl-CPYCVQYIKANSKFIGITEL [Peptide 7]” here?
Its oxidoreductase activity is “higher oxidoreductase activity than the control peptide”.

Same assay, conditions: compared with the control peptide without modified cysteine; DTT = 100% reducing activity, water = 0%

“GW YRSPFSRVV HLYR CPY-C—NH-ethyl (GWYRSPFSRVVHLYRCPYC-NHEt; cysteine pairing not given here) [Peptide 30]” was tested. Which oxidoreductase activity did it give?
Its oxidoreductase activity is “slightly higher oxidoreductase activity than the control peptide”.

With “GWYRSPFSRVVHLYRCPYC-NH-methyl (GWYRSPFSRVVHLYRCPYC-NHMe; cysteine pairing not given here) [Peptide 29]” as the substance, how does the oxidoreductase activity read?
The oxidoreductase activity was “slightly higher oxidoreductase activity than the control peptide”.

How did the oxidoreductase activity turn out when “N-Acetyl-CPYCSLQPLALEGSLQKRG (Ac-CPYCSLQPLALEGSLQKRG; not fully specified (C-terminus); printed as N-Acetyl-CPYCSLQPLALEGSLQKRG; cysteine pairing not given here) [Peptide 2]” was run?
The oxidoreductase activity was “higher oxidoreductase activity than the control peptide”.

Which oxidoreductase activity does the source give for “N-acetyl C-HGC GW YRSPFSRVV HLYR —NH2 [Peptide 27]” here?
The oxidoreductase activity was “higher activity than the control peptide”.

With “N-acetyl C-PYC GW YRSPFSRVV HLYR —NH2 [Peptide 22]” as the substance, how does the oxidoreductase activity read?
The oxidoreductase activity was “higher oxidoreductase activity than the control peptide”.

How did the oxidoreductase activity turn out when “N-ethyl C-PYC GW YRSPFSRVV HLYR —NH2 [Peptide 24]” was run?
Its oxidoreductase activity is “no oxidoreductase activity”.

How did the oxidoreductase activity turn out when “N-methyl C-PYC GW YRSPFSRVV HLYR —NH2 [Peptide 23]” was run?
Its oxidoreductase activity is “equivalent activity as compared to the control peptide”.

How did the oxidoreductase activity turn out when “N-propionyl C-PYC GW YRSPFSRVV HLYR —NH2 [Peptide 25]” was run?
Its oxidoreductase activity is “higher oxidoreductase activity than the control peptide”.
